In publication doi:10.1101/2022.10.01.510427v1 (biorxiv, 2022):

Target: T1, Gaussia luciferase (GLuc) (Gaussia princeps (in: crustaceans), UniProt Q9BLZ2)
T1 sequence (Q9BLZ2 18-185): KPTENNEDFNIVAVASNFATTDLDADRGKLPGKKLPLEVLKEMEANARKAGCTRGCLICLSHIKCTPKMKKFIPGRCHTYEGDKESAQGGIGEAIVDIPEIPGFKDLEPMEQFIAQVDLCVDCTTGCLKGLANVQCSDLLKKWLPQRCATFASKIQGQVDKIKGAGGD
Assay: bioluminescence inhibition assay
Type: biochemical

Question: For `O=c1n(Cc2ccc(O)cc2)nc2c(Cc3ccccc3)nc(-c3ccc(O)cc3)cn12` [Aza-CTZ], which IC50 is on record?
Answer: 10 to 100 µM
